The text below walks through data of patent publication US20050130989A1, “N-arylheteroaromatic products compositions containing them and use thereof” (Aventis Pharma S. A., priority 2003, published 2005).

A word on the melting point: it is the temperature, or range, at which the solid turns liquid.

One series has as its system HCT116 cells. Put plainly: Inhibition of proliferation of the human colon tumor line HCT116 ([14C]-thymidine incorporation). In kind it is cell-based. Conditions: Homo sapiens, HCT-116, 48 h, 48 hours at 37° C., read-out: Inhibition of HCT116 proliferation IC 50 (μm). The gist of the method: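 HCT116 cells (5000/well) in DMEM with 10% fetal calf serum incubated 48 h at 37° C with [14C]-thymidine (0.1 μCi/well) and compound up to 10 μm (DMSO ≤0.5%). Incorporated radioactivity counted; IC50 is concentration cutting radioactivity by 50% versus untreated control.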
Background: Incorporation of labelled thymidine or its analogues reports DNA synthesis.

Another series concerns the target T1, tubulin (Sus scrofa, UniProt P02550+P02554).
T1 construct: Tubulin is purified from pig brain according to published methods; from tissue; host or cells: pig brain
Put plainly: Evaluation of the inhibition of tubulin polymerization (turbidimetry). In kind it is biochemical, pig. To be noted: tubulin 10 μm (1 mg/ml), 37° C., turbidity at 350 nm; concentration that inhibits the rate of polymerization by 50%; read-out: Inhibition of tubulin polymerization IC 50 (μm). In a few lines: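 Pig brain tubulin (>95% pure), 10 μm in MES pH 6.8/30% glycerol buffer plus 1 mM GTP and 6 mM MgCl2, with compound at 0.5–10 μm added before polymerization. Polymerization triggered by shift from 6° C to 37° C, followed by turbidity at 350 nm; IC50 is 50% inhibition of polymerization rate.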

Where a name gives a salt, the structure may show the parent alone.

T1 sequence (P02550 whole entry): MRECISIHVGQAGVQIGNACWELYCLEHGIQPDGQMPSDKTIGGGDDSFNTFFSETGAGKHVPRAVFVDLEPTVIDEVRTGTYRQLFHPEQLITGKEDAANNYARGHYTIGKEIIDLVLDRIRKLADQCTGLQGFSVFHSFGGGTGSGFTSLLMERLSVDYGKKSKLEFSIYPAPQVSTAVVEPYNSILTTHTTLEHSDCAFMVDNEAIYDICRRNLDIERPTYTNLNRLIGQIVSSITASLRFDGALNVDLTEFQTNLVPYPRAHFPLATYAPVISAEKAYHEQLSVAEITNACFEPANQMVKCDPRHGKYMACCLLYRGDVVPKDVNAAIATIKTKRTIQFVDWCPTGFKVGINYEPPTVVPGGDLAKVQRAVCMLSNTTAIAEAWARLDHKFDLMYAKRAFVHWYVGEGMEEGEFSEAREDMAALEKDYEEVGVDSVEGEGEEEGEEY
T1 sequence (P02554 whole entry): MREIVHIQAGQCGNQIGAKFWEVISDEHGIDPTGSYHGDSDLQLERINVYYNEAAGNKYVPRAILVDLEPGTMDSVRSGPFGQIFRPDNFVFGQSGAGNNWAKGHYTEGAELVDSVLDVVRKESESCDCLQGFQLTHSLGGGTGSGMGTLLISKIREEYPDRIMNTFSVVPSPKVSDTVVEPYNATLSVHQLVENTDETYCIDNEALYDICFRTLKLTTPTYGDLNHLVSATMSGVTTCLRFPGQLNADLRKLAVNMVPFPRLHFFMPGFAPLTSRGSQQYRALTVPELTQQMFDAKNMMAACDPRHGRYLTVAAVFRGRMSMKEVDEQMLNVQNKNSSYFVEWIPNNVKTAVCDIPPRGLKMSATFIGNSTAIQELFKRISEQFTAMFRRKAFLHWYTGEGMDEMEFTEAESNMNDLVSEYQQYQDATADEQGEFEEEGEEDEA

In the case of `O=C(c1cccn1-c1ccccc1)N1CCN(c2cccnc2)CC1` (as salt: hydrochloride) [Example E46, (1-Phenyl-1H-pyrrol-2-yl)[4-(pyrid-3-yl)piperazin-1-yl]methanone hydrochloride], the melting point was found to be 180 °C.
In turn, `Cc1cc(C(=O)N2CC=C(c3ccccc3)CC2)n(-c2ccccc2)n1` [Example 4, (4-Phenyl-1,2,3,6-tetrahydropyridin-1-yl)(5-methyl-2-phenyl-2H-pyrazol-3-yl)-methanone] returned a melting point of 68 °C. Also, in the series with HCT116 cells, the IC50 was 58.8 nM. At tubulin, the IC50 came to 3000 nM.
The corresponding values for `O=C(c1cccn1-c1ccccc1)N1CCN(c2cccc(Cl)c2)CC1` [Example 6, [4-(3-Chlorophenyl)piperazin-1-yl](1-phenyl-1H-pyrrol-2-yl)methanone] are 105 °C, 38.2 nM and 1200 nM.
On to `Cc1cc(C(=O)N2CCN(c3cccc(C(=O)OC(C)(C)C)c3)CC2)n(-c2ccccc2)n1` [Example E27, tert-butyl 3-[4-(5-methyl-2-phenyl-2H-pyrazole-3-carbonyl)piperazin-1-yl]benzoate], for which the melting point amounted to 144 °C. The IC50 at tubulin stood at 22500 nM.
`Cc1cc(C(=O)N2CCN(c3ccccc3[N+](=O)[O-])CC2)n(-c2ccccc2)n1` [Example E62, (5-Methyl-2-phenyl-2H-pyrazol-3-yl)[4-(2-nitrophenyl)piperazin-1-yl]methanone]: the melting point turned out to be 127 °C. Further, the IC50 on tubulin was found to be 13500 nM.
Consider `COc1cc(OC)cc(N2CCN(C(=O)c3cc(-c4ccoc4)nn3-c3ccccc3)CC2)c1` [Example E90, [4-(3,5-Dimethoxyphenyl)piperazin-1-yl][5-(furan-3-yl)-2-phenyl-2H-pyrazol-3-yl]methanone], for which the IC50 with HCT116 cells turned out to be 18.8 nM; on tubulin, 1730 nM.
The corresponding values for `COc1cc(OC)cc(N2CCN(C(=O)c3cc(-c4ccc[nH]4)nn3-c3ccccc3)CC2)c1` [Example E91, [4-(3,5-Dimethoxyphenyl)piperazin-1-yl][2-phenyl-5-(1H-pyrrol-2-yl)-2H-pyrazol-3-yl]methanone] are 10.5 nM and 1000 nM.
The corresponding values for `COc1cc(OC)cc(N2CCN(C(=O)c3ccnn3-c3ccccc3)CC2)c1` [Example E92, [4-(3,5-Dimethoxyphenyl)piperazin-1-yl](2-phenyl-2H-pyrazol-3-yl)methanone] are 1 nM and 1160 nM.
Consider `COc1cc(OC)cc(N2CCN(C(=O)c3cc(N4CCCC4)nn3-c3ccccc3)CC2)c1` [Example E93, [4-(3,5-Dimethoxyphenyl)piperazin-1-yl][2-phenyl-5-(pyrrolidin-1-yl)-2H-pyrazol-3-yl]methanone], for which the values for the IC50 in the series on HCT116 cells and at tubulin were 6.3 nM and 2020 nM, respectively.
As for `COc1cc(OC)cc(N2CCN(C(=O)c3cc(/C=N/O)nn3-c3ccccc3)CC2)c1` [Example E94, 5-[4-(3,5-Dimethoxyphenyl)piperazine-1-carbonyl]-1-phenyl-1H-pyrazole-3-carboxaldehyde oxime E], the IC50 with HCT116 cells came to 2 nM; on tubulin, 900 nM.
The corresponding values for `COc1cc(OC)cc(N2CCN(C(=O)c3cc(/C=N\O)nn3-c3ccccc3)CC2)c1` [Example E95, 5-[4-(3,5-Dimethoxyphenyl)piperazine-1-carbonyl]-1-phenyl-1H-pyrazole-3-carboxaldehyde oxime Z] are 0.17 nM and 800 nM.
Turning to `COc1cc(OC)cc(N2CCN(C(=O)c3cc(N4CCOCC4)nn3-c3ccccc3)CC2)c1` [Example E96, [4-(3,5-Dimethoxyphenyl)piperazin-1-yl][5-(morpholin-4-yl)-2-phenyl-2H-pyrazol-3-yl]methanone], the results for the IC50 in the series with HCT116 cells and at tubulin were 73.3 nM and 11400 nM, respectively.
The corresponding values for `Cc1cc(C(=O)N2CCN(c3cccc(C(N)=O)c3)CC2)n(-c2cccnc2)n1` [Example E97, 3-[4-(5-Methyl-2-pyrid-3-yl-2H-pyrazole-3-carbonyl)piperazin-1-yl]benzamide] are 81.1 nM and 3600 nM.
The corresponding values for `COc1cc(OC)cc(N2CCN(C(=O)c3cc(NCc4ccccc4)nn3-c3ccccc3)CC2)c1` [Example E98, (5-Benzylamino-2-phenyl-2H-pyrazol-3-yl)[4-(3,5-dimethoxyphenyl)piperazin-1-yl]methanone] are 223 nM and 1400 nM.
The corresponding values for `COc1cc(OC)cc(N2CCN(C(=O)c3cc(N)nn3-c3ccccc3)CC2)c1` [Example E99, (5-Amino-2-phenyl-2H-pyrazol-3-yl)[4-(3,5-dimethoxyphenyl)piperazin-1-yl]methanone] are 2.4 nM and 1000 nM.
As for `COc1cc(OC)cc(N2CCN(C(=O)c3cc(C=O)nn3-c3ccccc3)CC2)c1` [Example E100, 5-[4-(3,5-Dimethoxyphenyl)piperazine-1-carbonyl]-1-phenyl-1H-pyrazole-3-carboxaldehyde], the IC50 in the series with HCT116 cells worked out at 4.1 nM; on tubulin it was 500 nM.
The corresponding values for `Cc1cc(C(=O)N2CCN(c3cccc(NCCO)c3)CC2)n(-c2ccccc2)n1` [Example E103, {4-[3-(2-Hydroxyethylamino)phenyl]piperazin-1-yl}-(5-methyl-2-phenyl-2H-pyrazol-3-yl)methanone] are 16.7 nM and 1000 nM.
Regarding `Cc1cc(C(=O)N2CCN(c3ccsc3)CC2)n(-c2ccccc2)n1` [Example E104, (5-Methyl-2-phenyl-2H-pyrazol-3-yl)[4-(thiophen-3-yl)piperazin-1-yl]-methanone], the IC50 in the series on HCT116 cells is 839 nM; at tubulin, 8000 nM.
Turning to `COc1cc(OC)cc(N2CCN(C(=O)c3cc(N4CCC(O)C4)nn3-c3ccccc3)CC2)c1` (stereo not shown) [Example E106, [4-(3,5-Dimethoxyphenyl)piperazin-1-yl][5-(3-hydroxypyrrolidin-1-yl)-2-phenyl-2H-pyrazol-3-yl]methanone], the IC50 was determined as 142 nM in the series with HCT116 cells and 10000 nM on tubulin.
The corresponding values for `CNCCNC(=O)c1cccc(N2CCN(C(=O)c3cc(C)nn3-c3ccccc3)CC2)c1` [Example E110, N-(2-Methylaminoethyl)-3-[4-(5-methyl-2-phenyl-2H-pyrazole-3-carbonyl)piperazin-1-yl]benzamide] are 1170 nM and 12000 nM.
Regarding `Cc1cc(C(=O)N2CCN(c3cc(F)c(F)c(F)c3)CC2)n(-c2ccccc2)n1` [Example E111, (5-Methyl-2-phenyl-2H-pyrazol-3-yl)[4-(3,4,5-trifluorophenyl)piperazin-1-yl]methanone], the melting point is 204 °C. Also, the IC50 at tubulin came out at 2330 nM.
Consider `Cc1cc(C(=O)N2CCN(c3nccs3)CC2)n(-c2ccccc2)n1` [Example E115], for which the IC50 in the series on HCT116 cells is 3240 nM; at tubulin, < 25000 nM.
The corresponding values for `Cc1cc(C(=O)N2CCN(c3cccc(NC(=O)CCO)c3)CC2)n(-c2ccccc2)n1` [Example E128, 3-Hydroxy-N-{3-[4-(5-methyl-2-phenyl-2H-pyrazole-3-carbonyl)piperazin-1-yl]-phenyl}propionamide] are 120 nM and 3000 nM.
Take `NC(=O)c1cccc(N2CCN(C(=O)c3cc(CO)nn3-c3ccccc3)CC2)c1` [Example E134, 3-[4-(5-Hydroxymethyl-2-phenyl-2H-pyrazole-3-carbonyl)piperazin-1-yl]benzamide]: the melting point amounted to 216 °C. Also, the IC50 at tubulin was determined as 3200 nM.
